Results on nine compounds are retold here after patent US20220370416A1, “COMPOUNDS AND METHODS FOR TARGETED DEGRADATION OF KRAS” (Arvinas Operations, Inc., priority 2020, published 2022).

For this experiment, the target named is HiBit-KRAS^G12C (Homo sapiens, UniProt P01116, G12C). Kind of experiment: HiBit degradation assay in SW1573 HiBit-KRas^G12C cells. The format is cell-based. Details: expressed in transfected cells; host or cells: SW1573 (clone E6), modified pcDNA3.1 vector, TK promoter. As to conditions: 0.1% DMSO, 24 hours; for Dmax: SW1573, SW1573 HiBit-KRas^G12C, read-out: KRas^G12C-HiBit (SW1573; 0.1% DMSO) Dmax**; for DC50: SW1573 HiBit-KRas^G12C, read-out: KRas^G12C-HIBit (SW1573; 0.1% DMSO) DC50*. On the procedure: Reagents. SW1573 (CRL-2170) and MiaPaCa-2 (CRL-1420) cells were purchased from ATCC. Both cell lines are […] for the G12C mutation in KRAS. SW1573 cells were cultured in DMEM+F12+Glutamax (+Sodium Bicarbonate, +sodium pyruvate, Thermofisher scientific, #10565) supplemented with 10% FBS (Thermofisher scientific, #2060357) and 1% Antibiotic-Antimycotic (Thermofisher scientific, #15240096). MiaPaCa-2 cells were cultured in DMEM+Glutamax media (Thermofisher scientific, #10566) supplemented with 10% FBS (Thermofisher scientific, #2060357) and 1% Antibiotic-Antimycotic (Thermofisher scientific, #15240096). For degradation assays, 384 well plates were purchased from Corning (Corning® CellBIND® 384-well Flat Clear Bottom Black Polystyrene Microplates, Low Flange, #3770). Gambogic acid was purchased from Selleckchem (#S2448). Alamar blue was purchased from Thermofisher scientific (A50101) and used according to manufacturer instructions. The Nano-Glo® HiBit Lytic Detection System and Nano-Glo® HiBit Blotting System were purchased from Promega (#N3050 and #N2410) and used according to manufacturer instructions.
HiBit-KRAS^G12C, sequence (P01116 1-186 isoform P01116-2 G12C limits assumed): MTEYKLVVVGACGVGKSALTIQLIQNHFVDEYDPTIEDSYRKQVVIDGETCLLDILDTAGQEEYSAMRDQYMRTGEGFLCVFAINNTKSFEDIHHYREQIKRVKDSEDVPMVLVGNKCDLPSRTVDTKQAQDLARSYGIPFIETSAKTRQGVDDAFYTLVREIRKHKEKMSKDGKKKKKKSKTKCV
To create the SW1573 HiBit-KRAS^G12C cell line, the nucleotide sequence encoding the 11 amino acid HiBit tag from Promega (Schwinn, M. K. et al. (2018) CRISPR-mediated tagging of endogenous proteins with a luminescent peptide. ACS Chem. Biol. 13(2), 467-474) was appended to the N-terminus of the KRAS^G12C coding sequence. This synthesized DNA was cloned into a modified pcDNA3.1 vector under the control of the thymidine kinase (TK) promoter. This HiBit-KRAS^G12C expressing plasmid was transfected into parental SW1573 cells and colonies were selected using 400 μg/mL zeocin. The resulting clonal lines were screened for expression of HiBit-KRAS^G12C protein using Nano-Glo® HiBit Blotting System. A luminescent band of the correct size for HiBit-KRAS^G12C was detected in several clones. Clone E6 was selected for further studies.
Either SW1573 HiBit-KRas^G12C or MiaPaCa-2 HiBit-KRas^G12C cells were plated at 9000 cells/well in a 384 well plate (Corning #3770). Exemplary heterobifunctional molecules and positive controls were diluted in the appropriate cell media and applied to the plated cells resulting in a final concentration titration of 10 μM to 20 nM in either 0.1% or 0.5% dimethyl sulfoxide (DMSO). Gambogic acid was used as a positive control for cytotoxicity and titrated from 10 μM to 78 nM. All assays were performed in triplicate. Cells were treated with compounds for 24 hours at 37° C. in an incubator containing 5% CO2. Following treatment, alamar blue was used to determine if any compounds led to a loss in cell viability after 24 hours. The 10× alamar blue reagent was added to a final concentration of 1× as recommended by the manufacturer and cells were returned to the incubator for 4 hours. Plates were then allowed to equilibrate to room temperature and fluorescence was measured using a Perkin-Elmer EnVision. After completion of the fluorescence read, the liquid from each well was removed and the cells were washed with PBS. The Nano-Glo® HiBiT detection reagent was prepared according to the manufacturer's instructions and added to each well after the PBS wash was removed. Following incubation at room temperature for 45 minutes, the luminescence was read using the ultra-sensitive luminescence aperture on the Envision instrument.
Fluorescence values from the alamar blue treatment were normalized to the DMSO only control for each compound titration. We hypothesized that compounds that led to a ≥50% loss in cell viability of the KRAS-independent SW1573 HiBit-KRas^G12C cells were likely generally cytotoxic and loss of HiBit-KRAS^G12C signal from these compounds may be due to lower cell number and not specific KRAS^G12C degradation. These points were therefore excluded from the data analysis for degradation. […]

`C=CC(=O)N1CCN(c2nc(O[C@H](C)CN3CCC(OCCOCCOc4cc(-c5scnc5C)ccc4CNC(=O)[C@@H]4C[C@@H](O)CN4C(=O)[C@H](c4cc(C)no4)C(C)C)CC3)nc3c(F)c(-c4cc(O)cc5ccccc45)c(Cl)cc23)CC1` [Compound 71, (2S,4R)-N-[(2-{2-[2-({1-[(2R)-2-{[6-chloro-8-fluoro-7-(3-hydroxynaphthalen-1-yl)-4-[4-(prop-2-enoyl)piperazin-1-yl]quinazolin-2-yl]oxy}propyl]piperidin-4-yl}oxy)ethoxy]ethoxy}-4-(4-methyl-1,3-thiazol-5-yl)phenyl)methyl]-4-hydroxy-1-[(2S)-3-methyl-2-(3-methyl-1,2-oxazol-5-yl)butanoyl]pyrrolidine-2-carboxamide]: the Dmax is less than 35% and the DC50 lay in the range of 100 to 1000 nM.
For `C=CC(=O)N1CCN(c2nc(O[C@H](C)CN3CCC(OCCOCCOCCOCCOc4cc(-c5scnc5C)ccc4CNC(=O)[C@@H]4C[C@@H](O)CN4C(=O)[C@@H](c4cc(C)no4)C(C)C)CC3)nc3c(F)c(-c4cc(O)cc5ccccc45)c(Cl)cc23)CC1` [Compound 76, (2S,4R)-N-({2-[2-(2-{2-[2-({1-[(2R)-2-{[6-chloro-8-fluoro-7-(3-hydroxynaphthalen-1-yl)-4-[4-(prop-2-enoyl)piperazin-1-yl]quinazolin-2-yl]oxy}propyl]piperidin-4-yl}oxy)ethoxy]ethoxy}ethoxy)ethoxy]-4-(4-methyl-1,3-thiazol-5-yl)phenyl}methyl)-4-hydroxy-1-[(2R)-3-methyl-2-(3-methyl-1,2-oxazol-5-yl)butanoyl]pyrrolidine-2-carboxamide], the DC50 is more than 1000 nM.
In the case of `C=CC(=O)N1CCN(c2nc(OCCN3CCC(OCCOCC(=O)N[C@H](C(=O)N4C[C@H](O)C[C@H]4C(=O)N[C@@H](C)c4ccc(-c5scnc5C)cc4)C(C)(C)C)CC3)nc3c2CCN(c2cccc4cccc(C)c24)C3)C[C@@H]1CC#N` [Compound 30, (2S,4R)-1-[(2S)-2-{2-[2-({1-[2-({4-[(3S)-3-(cyanomethyl)-4-(prop-2-enoyl)piperazin-1-yl]-7-(8-methylnaphthalen-1-yl)-5H,6H,7H,8H-pyrido[3,4-d]pyrimidin-2-yl}oxy)ethyl]piperidin-4-yl}oxy)ethoxy]acetamido}-3,3-dimethylbutanoyl]-4-hydroxy-N-[(1S)-1-[4-(4-methyl-1,3-thiazol-5-yl)phenyl]ethyl]pyrrolidine-2-carboxamide], the Dmax is less than 35% and the DC50 is more than 1000 nM.
With `C=CC(=O)N1CCN(c2nc(OCCN3CCC(COCC(=O)N[C@H](C(=O)N4C[C@@H](O)C[C@H]4C(=O)N[C@@H](C)c4ccc(-c5scnc5C)cc4)C(C)(C)C)CC3)nc3c(F)c(-c4cc(O)cc5ccccc45)c(Cl)cc23)CC1` [Compound 8, (2S,4S)-1-[(2S)-2-(2-{[1-(2-{[6-chloro-8-fluoro-7-(3-hydroxynaphthalen-1-yl)-4-[4-(prop-2-enoyl)piperazin-1-yl]quinazolin-2-yl]oxy}ethyl)piperidin-4-yl]methoxy}acetamido)-3,3-dimethylbutanoyl]-4-hydroxy-N-[(1S)-1-[4-(4-methyl-1,3-thiazol-5-yl)phenyl]ethyl]pyrrolidine-2-carboxamide], the DC50 is more than 1000 nM.
Turning to `C=CC(=O)N1CCN(c2nc(O[C@H](C)CN3CCC(OCCOCC(=O)N[C@H](C(=O)N4C[C@H](O)C[C@H]4C(=O)N[C@@H](C)c4ccc(-c5scnc5C)cc4)C(C)(C)C)CC3)nc3c(Oc4c(Cl)c(F)cc5[nH]ncc45)nc(Cl)cc23)CC1` [Compound 26, (2S,4R)-1-[(2S)-2-{2-[2-({1-[(2R)-2-({6-chloro-8-[(5-chloro-6-fluoro-1H-indazol-4-yl)oxy]-4-[4-(prop-2-enoyl)piperazin-1-yl]pyrido[3,4-d]pyrimidin-2-yl}oxy)propyl]piperidin-4-yl}oxy)ethoxy]acetamido}-3,3-dimethylbutanoyl]-4-hydroxy-N-[(1S)-1-[4-(4-methyl-1,3-thiazol-5-yl)phenyl]ethyl]pyrrolidine-2-carboxamide], the Dmax was 35 to 70% and the DC50 was more than 1000 nM.
With `C=CC(=O)N1CCN(c2nc(OC[C@@H]3C[C@@H](OCCOc4cc(-c5scnc5C)ccc4CNC(=O)[C@@H]4C[C@@H](O)CN4C(=O)[C@@H](c4cc(C)no4)C(C)C)CN3C)nc3c2CCN(c2cccc4ccccc24)C3)C[C@@H]1CC#N` [Compound 87, (2S,4R)-N-{[2-(2-{[(3R,5S)-5-[({4-[(3S)-3-(cyanomethyl)-4-(prop-2-enoyl)piperazin-1-yl]-7-(naphthalen-1-yl)-5H,6H,7H,8H-pyrido[3,4-d]pyrimidin-2-yl}oxy)methyl]-1-methylpyrrolidin-3-yl]oxy}ethoxy)-4-(4-methyl-1,3-thiazol-5-yl)phenyl]methyl}-4-hydroxy-1-[(2R)-3-methyl-2-(3-methyl-1,2-oxazol-5-yl)butanoyl]pyrrolidine-2-carboxamide], the Dmax was in the range of 35 to 70% and the DC50 was more than 1000 nM.
Consider `C=CC(=O)N1CCN(c2nc(O[C@H](C)CN3CCC(OCCOCCOCCOCCOCCOc4cc(-c5scnc5C)ccc4CNC(=O)[C@@H]4C[C@@H](O)CN4C(=O)[C@H](c4cc(C)no4)C(C)C)CC3)nc3c(F)c(-c4cc(O)cc5ccccc45)c(Cl)cc23)CC1` [Compound 79, (2S,4R)-N-[(2-{[14-({1-[(2R)-2-{[6-chloro-8-fluoro-7-(3-hydroxynaphthalen-1-yl)-4-[4-(prop-2-enoyl)piperazin-1-yl]quinazolin-2-yl]oxy}propyl]piperidin-4-yl}oxy)-3,6,9,12-tetraoxatetradecan-1-yl]oxy}-4-(4-methyl-1,3-thiazol-5-yl)phenyl)methyl]-4-hydroxy-1-[(2S)-3-methyl-2-(3-methyl-1,2-oxazol-5-yl)butanoyl]pyrrolidine-2-carboxamide], for which the DC50 was more than 1000 nM.
The same measure, in the same setting: under `C=C(F)C(=O)N1CCN(c2nc(O[C@H](C)CN3CCC(COc4cc([C@@H](C(=O)N5C[C@H](O)C[C@H]5C(=O)N[C@@H](C)c5ccc(-c6scnc6C)cc5)C(C)C)on4)CC3)nc3c(F)c(-c4cc(O)cc5ccccc45)c(Cl)cc23)CC1` [Compound 18, (2S,4R)-1-[(2S)-2-[3-({1-[(2R)-2-({6-chloro-8-fluoro-4-[4-(2-fluoroprop-2-enoyl)piperazin-1-yl]-7-(3-hydroxynaphthalen-1-yl)quinazolin-2-yl}oxy)propyl]piperidin-4-yl}methoxy)-1,2-oxazol-5-yl]-3-methylbutanoyl]-4-hydroxy-N-[(1S)-1-[4-(4-methyl-1,3-thiazol-5-yl)phenyl]ethyl]pyrrolidine-2-carboxamide] stands more than 1000 nM.
As to `C=CC(=O)N1CCN(c2nc(O[C@H](C)CN3CCC(CN(C)[C@H]4C[C@@H](OCC(=O)N[C@H](C(=O)N5C[C@H](O)C[C@H]5C(=O)N[C@@H](C)c5ccc(-c6scnc6C)cc5)C(C)(C)C)C4)CC3)nc3c(F)c(-c4cc(O)cc5ccccc45)c(Cl)cc23)CC1` [Compound 47, (2S,4R)-1-[(2S)-3,3-dimethyl-2-(2-[(1s,3s)-3-[({1-[(2R)-2-{[6-chloro-8-fluoro-7-(3-hydroxynaphthalen-1-yl)-4-[4-(prop-2-enoyl)piperazin-1-yl]quinazolin-2-yl]oxy}propyl]piperidin-4-yl}methyl)(methyl)amino]cyclobutoxy]acetamido}butanoyl]-4-hydroxy-N-[(1S)-1-[4-(4-methyl-1,3-thiazol-5-yl)phenyl]ethyl]pyrrolidine-2-carboxamide], the DC50 is more than 1000 nM.
